pIC50: −log10 of the molar value.
Experiments:
[1] = biological target: T1, mutEGFR (D770_N771insSVD) (Homo sapiens, UniProt P00533, DUP768-770); assay: Exon20-Mutant-EGFR (D770_N771insSVD) kinase assay (TR-FRET); assay type: biochemical
T1 construct: GST-EGFR #3 (SVD between D770 and N771); made in house; host or cells: Sf9 insect cells (baculovirus)

[2] = biological target: T2, mutEGFR (D770_N771insNPG, T790) (Homo sapiens, UniProt P00533, INS770NPG/T790M); assay: mutEGFR (D770_N771insNPG, T790) kinase assay; assay type: biochemical
T2 construct: exact insNPG construct not described; in-house EGFR proteins were N-terminal GST fusions from baculovirus/insect cells (borders R669-A1210 given only for WT, insSVD, insASV)
Excerpt: The different EGFR proteins used in the biochemical kinase activity inhibition assays were generated inhouse by expression in insect cells using Baculo Virus system and subsequent purification as described in the following paragraphs.
The cDNAs encoding the various protein sequences from human EGFR human (P00533) were optimized for expression in eukaryotic cells and synthesized by the GeneArt Technology at Life Technologies.

BA/F3 (insSVD) cells = assay: Ba/F3-EGFR-insSVD cell survival assay (Cell Titer-Glo); assay type: cell-based
Description: Cellular Data Description (WT, insSVD, insSVD T790M) 293T cells from ATCC were transfected with pBABEpuro expression constructs for WT EGFR or EGFR-insSVD, or EGFR-insSVD T790M, and pCL-Eco packaging vector using Fugene-6 transfection reagent from Promega. Plates were incubated at 37° C. for 48 h. Retrovirus was harvested by filtering the media supernatant through a 0.45 μm filter.
Ba/F3 cells purchased from DSMZ were grown in RPMI+10% FBS+10 ng/ml IL-3 and infected with filtered retroviral supernatant at a 1:2 dilution. Polybrene was added to a concentration of 8 μg/mL, plates were spun for 90 min, and incubated for 16 h at 37° C. 2 μg/mL puromycin was added to the infected cells 24 h after infection and cells were continually grown in the presence of puromycin and 10 ng/ml IL-3. Following stably expressing Ba/F3 cell lines were generated: Ba/F3-EGFR-WT, Ba/F3-EGFR-insSVD, Ba/F3-EGFR-insSVD T790M, (Ba/F3-vector-control).
For cell survival assays, Ba/F3 cells were grown to a density of 1-2 million cells per mL, spun down and resuspended in media without IL-3, and replated at a concentration of 200,000-500,000 cells per mL. The cells ectopically expressing WT EGFR, EGFR-insSVD, or EGFR-insSVD T790M were plated with 10 ng/ml Millipore Culture grade EGF. The cells ectopically expressing pBABEpuro empty vector were plated with 10 ng/mL IL-3.
2 days later, cells were plated in 50 µL in a 384 well plate at a concentration of 4000 cells per well for cells assayed in the absence of IL-3 and 2000 cells per well for cells assayed in the presence of IL-3. 100 nL of compound was added to each well using a 100 nL pin head, and plates were incubated at 37° C. for 48 h.
Cell viability was measured by adding 20 μL of Cell Titer-Glo Luminescent Cell Viability Reagent diluted 1:3 in PBS. Plates were sealed with Perkin Elmer Top-Seal, inverted several times to mix, and immediately centrifuged at 1000 rpm for 2 min. Plates were incubated in low light conditions for 8-10 min and luminescence was measured.

[3] = mutEGFR (D770_N771insSVD) kinase assay IC50, Table 2a, D770_N771insSVD, 2 mM ATP
[4] = Table 3a, cell survival, Cell Titer-Glo, with 10 ng/ml EGF, without IL-3, 48 h
[5] = Mus musculus, BaF3, 48 h, Table 3a, cell survival, Cell Titer-Glo, with 10 ng/ml EGF, without IL-3

T2 sequence (P00533 with tags, fused parts or gaps INS770NPG/T790M limits assumed): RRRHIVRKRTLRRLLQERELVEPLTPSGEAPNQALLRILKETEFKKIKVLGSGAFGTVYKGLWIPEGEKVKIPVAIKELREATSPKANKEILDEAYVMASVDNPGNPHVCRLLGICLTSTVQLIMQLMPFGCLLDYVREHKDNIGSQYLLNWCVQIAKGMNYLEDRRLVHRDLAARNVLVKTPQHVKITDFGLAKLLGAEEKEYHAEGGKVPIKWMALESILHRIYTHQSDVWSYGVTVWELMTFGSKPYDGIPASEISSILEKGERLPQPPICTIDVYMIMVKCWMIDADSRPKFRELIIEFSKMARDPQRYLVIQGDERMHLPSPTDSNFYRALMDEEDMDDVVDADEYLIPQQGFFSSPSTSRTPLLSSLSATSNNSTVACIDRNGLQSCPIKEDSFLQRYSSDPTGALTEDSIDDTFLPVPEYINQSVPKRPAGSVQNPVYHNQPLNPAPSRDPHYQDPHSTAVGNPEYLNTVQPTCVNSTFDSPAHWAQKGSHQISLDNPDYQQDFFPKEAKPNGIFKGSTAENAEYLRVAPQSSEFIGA
T1 sequence (P00533 with tags, fused parts or gaps DUP768-770): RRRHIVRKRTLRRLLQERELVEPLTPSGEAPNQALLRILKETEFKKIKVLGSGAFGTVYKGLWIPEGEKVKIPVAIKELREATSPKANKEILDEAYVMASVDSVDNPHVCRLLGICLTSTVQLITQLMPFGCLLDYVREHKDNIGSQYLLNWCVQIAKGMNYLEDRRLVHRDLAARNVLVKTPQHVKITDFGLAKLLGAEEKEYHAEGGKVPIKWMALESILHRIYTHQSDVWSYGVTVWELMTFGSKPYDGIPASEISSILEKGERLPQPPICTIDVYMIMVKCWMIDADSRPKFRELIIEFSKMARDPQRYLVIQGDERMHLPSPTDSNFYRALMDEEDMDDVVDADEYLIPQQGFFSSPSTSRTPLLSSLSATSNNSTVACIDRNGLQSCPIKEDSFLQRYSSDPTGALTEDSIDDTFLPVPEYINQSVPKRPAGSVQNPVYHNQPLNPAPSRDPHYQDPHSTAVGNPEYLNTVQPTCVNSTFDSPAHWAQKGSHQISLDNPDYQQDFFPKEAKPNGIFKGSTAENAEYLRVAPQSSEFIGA

| pIC50 [1, 3] | pIC50 ([2]; Table 2a, D770_N771insNPG) | pIC50 ([1]; mutEGFR (D770_N771insSVD) kinase assay IC50, Table 2b (from US Priority Patent Application), mutEGFR D770_N771insSVD) | pIC50 ([2]; Table 2b (from US Priority Patent Application), mutEGFR D770_N771insNPG) | SMILES | pIC50 (BA/F3 (insSVD) cells; [4]) | pIC50 (BA/F3 (insSVD) cells; [5]) | pIC50 (BA/F3 (insSVD) cells; Mus musculus, BaF3, 48 h, Table 3b, Ba/F3 EGFR-insSVD) |
| --- | --- | --- | --- | --- | --- | --- | --- |
| 7.60 | 7.66 |  |  | CC1c2c(-c3ccnc4[nH]ccc34)c(-c3ccc(F)cc3)nn2CCN1C(=O)/C=C/CN(C)C (single isomer, unassigned; isomer 2) [Example 267, (E)-4-(dimethylamino)-1-(2-(4-fluorophenyl)-4-methyl-3-(1H-pyrrolo[2,3-b]pyridin-4-yl)-6,7-dihydropyrazolo[1,5-a]pyrazin-5(4H)-yl) but-2-en-1-one (isomer 2)] | 6.59 |  |  |
| 6.46 | 5.60 |  |  | C=CC(=O)N1CCn2nc(-c3ccc(C(F)(F)F)cc3)c(-c3ccncc3C3CC3)c2C1 [Example 55, 1-[3-(3-cyclopropylpyridin-4-yl)-2-[4-(trifluoromethyl)phenyl]-6,7-dihydropyrazolo[1,5-a]pyrazin-5(4H)-yl]prop-2-en-1-one] |  | 6.13 |  |
| 8.84 | 8.10 |  |  | CN(C)C/C=C/C(=O)N1CCn2nc(-c3ccc4[nH]ccc4c3)c(-c3ccncc3)c2C1 [Example 197, (2E)-4-(dimethylamino)-1-[2-(1H-indol-5-yl)-3-(pyridin-4-yl)-6,7-dihydropyrazolo[1,5-a]pyrazin-5(4H)-yl]but-2-en-1-one] |  | 6.00 |  |
| 7.24 | 6.65 |  |  | CN(C)C/C=C/C(=O)N1Cc2c(-c3ccncc3)c(-c3ccc(F)cc3)nn2C(C(N)=O)C1 (racemic) [Example 202, (7RS)-5-[(2E)-4-(dimethylamino)but-2-enoyl]-2-(4-fluorophenyl)-3-(pyridin-4-yl)-4,5,6,7-tetrahydropyrazolo[1,5-a]pyrazine-7-carboxamide] |  | 5.00 |  |
| 8.00 | 7.44 |  |  | C=CC(=O)N1Cc2c(-c3ccncc3)c(-c3ccc(F)cc3)nn2C(CC(=O)NC)C1 (stereo not drawn) [Example 225, 2-(5-acryloyl-2-(4-fluorophenyl)-3-(pyridin-4-yl)-4,5,6,7-tetrahydropyrazolo[1,5-a]pyrazin-7-yl)-N-methylacetamide] |  | 6.41 |  |
| 8.42 | 8.52 |  |  | COc1ccc(-c2nn3c(c2-c2ccncc2)CN(C(=O)/C=C/CN(C)C)CC3)cc1Cl [Example 27, (2E)-1-[2-(3-chloro-4-methoxyphenyl)-3-(pyridin-4-yl)-6,7-dihydropyrazolo[1,5-a]pyrazin-5(4H)-yl]-4-(dimethylamino)but-2-en-1-one] |  | 6.17 |  |
| 7.98 | 7.94 |  |  | CN(C)C/C=C/C(=O)N1CCn2nc(-c3ccc(F)cc3)c(-c3ccnc4[nH]ccc34)c2C1 [Example 98, (2E)-4-(dimethylamino)-1-[2-(4-fluorophenyl)-3-(1H-pyrrolo[2,3-b]pyridin-4-yl)-6,7-dihydropyrazolo[1,5-a]pyrazin-5(4H)-yl]but-2-en-1-one] |  | 6.68 |  |
| 9.59 | 8.99 |  |  | CC(C)(C)NC/C=C/C(=O)N1CCn2nc(-c3ccc(Cl)cc3)c(-c3ccncc3)c2C1 [Example 167, (2E)-4-(tert-butylamino)-1-[2-(4-chlorophenyl)-3-(pyridin-4-yl)-6,7-dihydropyrazolo[1,5-a]pyrazin-5(4H)-yl]but-2-en-1-one] |  | 7.45 |  |
| 8.80 | 7.97 |  |  | C=CC(=O)N1CCn2nc(-c3ccccc3Cl)c(-c3ccncc3)c2C1 [Example 137, 1-[2-(2-chlorophenyl)-3-(pyridin-4-yl)-6,7-dihydropyrazolo[1,5-a]pyrazin-5(4H)-yl]prop-2-en-1-one] |  | 6.84 |  |
| 7.85 | 7.63 |  |  | C=CC(=O)N1Cc2c(-c3ccncc3)c(-c3ccc(F)cc3)nn2C(CC(=O)N(C)C)C1 (stereo not drawn) [Example 226, 2-(5-acryloyl-2-(4-fluorophenyl)-3-(pyridin-4-yl)-4,5,6,7-tetrahydropyrazolo[1,5-a]pyrazin-7-yl)-N,N-dimethylacetamide] |  | 6.87 |  |
| 9.13 | 8.70 |  |  | CC1c2c(-c3ccncc3)c(-c3ccc(Cl)cc3F)nn2CCN1C(=O)/C=C/CN(C)C (racemic) [Example 244, (2E)-1-[(RS)-2-(4-chloro-2-fluorophenyl)-4-methyl-3-(pyridin-4-yl)-6,7-dihydropyrazolo[1,5-a]pyrazin-5(4H)-yl]-4-(dimethylamino)but-2-en-1-one] |  | 6.77 |  |
| 8.18 | 7.59 |  |  | C=CC(=O)N1CCn2nc(-c3ccc(Cl)cc3F)c(-c3c(F)cnc4[nH]ccc34)c2C1 [Example 51, 1-[2-(4-chloro-2-fluorophenyl)-3-(5-fluoro-1H-pyrrolo[2,3-b]pyridin-4-yl)-6,7-dihydropyrazolo[1,5-a]pyrazin-5(4H)-yl]prop-2-en-1-one] |  | 7.26 |  |
| 9.29 | 8.63 |  |  | O=C(/C=C/CN1CCC1)N1CCn2nc(-c3ccc(Cl)cc3)c(-c3ccncc3)c2C1 [Example 162, (2E)-4-(azetidin-1-yl)-1-[2-(4-chlorophenyl)-3-(pyridin-4-yl)-6,7-dihydropyrazolo[1,5-a]pyrazin-5(4H)-yl]but-2-en-1-one] |  | 7.36 |  |
| 6.61 | 5.40 |  |  | Cc1c[nH]c2nccc(-c3c(-c4ccc(C(F)(F)F)cc4)nn4c3C(C)N(C(=O)/C=C/CN(C)C)CC4)c12 (single isomer, unassigned; isomer 2) [Example 253, 4-(dimethylamino)-1-(4-methyl-3-(3-methyl-1H-pyrrolo[2,3-b]pyridin-4-yl)-2-(4-(trifluoromethyl)phenyl)-6,7-dihydropyrazolo[1,5-a]pyrazin-5(4H)-yl) but-2-en-1-one (isomer 2)] | 6.31 |  |  |
| 8.62 | 8.12 |  |  | C=CC(=O)N1Cc2c(-c3ccncc3)c(-c3ccc(F)cc3)nn2C(CC(N)=O)C1 (stereo not drawn) [Example 224, 2-(5-acryloyl-2-(4-fluorophenyl)-3-(pyridin-4-yl)-4,5,6,7-tetrahydropyrazolo[1,5-a]pyrazin-7-yl) acetamide] |  | 6.47 |  |
| 7.15 | 7.45 |  |  | COc1ccccc1-c1nn2c(c1-c1ccncc1)CN(C(=O)/C=C/CN(C)C)CC2 [Example 28, (2E)-4-(dimethylamino)-1-[2-(2-methoxyphenyl)-3-(pyridin-4-yl)-6,7-dihydropyrazolo[1,5-a]pyrazin-5(4H)-yl]but-2-en-1-one] |  | 5.40 |  |
| 6.17 | 5.93 |  |  | C#Cc1ccc(-c2nn3c(c2-c2ccncc2)CN(C(=O)/C=C/CN(C)C)CC3)cc1 [Example 146, (2E)-4-(dimethylamino)-1-[2-(4-ethynylphenyl)-3-(pyridin-4-yl)-6,7-dihydropyrazolo[1,5-a]pyrazin-5(4H)-yl]but-2-en-1-one] |  | 5.33 |  |
| 7.26 | 7.12 | 7.26 | 7.12 | CC#CC(=O)N1CCn2nc(-c3ccc(F)cc3)c(-c3ccncc3)c2C1 [Example 16, 1-[2-(4-fluorophenyl)-3-(pyridin-4-yl)-6,7-dihydropyrazolo[1,5-a]pyrazin-5(4H)-yl]but-2-yn-1-one] |  | 6.11 | 6.11 |
| 5.17 | 6.46 |  |  | Cc1c[nH]c2nccc(-c3c(-c4cccc(C#N)c4)nn4c3CN(C(=O)/C=C/CN(C)C)[C@H](C)C4)c12 [Example 289, 3-[(6R)-5-[(2E)-4-(dimethylamino)but-2-enoyl]-6-methyl-3-(3-methyl-1H-pyrrolo[2,3-b]pyridin-4-yl)-4,5,6,7-tetrahydropyrazolo[1,5-a]pyrazin-2-yl]benzonitrile] |  | 6.04 |  |
